Assay results from US4349546A, “D-Allose derivative and preparation method therefor” (Wakamoto Pharmaceutical Co., Ltd., priority 1980, dated 1982).

Legend:
β-16 melanoma cells = assay: Test of therapeutical effects on melanoma (Test Example 4); format: in vivo, BDF mice; details: for Number of survivals: 60 days
[1] = test system: leukemia L-1210, P 388, Lewis lung carcinoma, β-16 melanoma and mouse lung autotumor; assay: Antitumor effect, overall statement of the patent; format: in vivo, warm-blooded animals; mice
Toxicity tests (LD50) = details: mouse, in vivo, DDY male mice
Description: CNUA dissolved in isotonic sodium chloride solution was given to DDY male mice each weighing 20 to 22.5 g by intraperitoneal administration, intravenous administration and peroral administration, and LD50 values were determined.

[2] = test system: Peripheral leukocyte count; assay: Effects on peripheral leukocyte count (Test Example 6); format: in vivo, DDY mice
Excerpt: Comparison of effects of CNUA and Me-CCNU* on peripheral leukocyte count:
Six-week old DDY mice each weighing 22±1 g; one group comprising 5 male mice.
CNUA and Me-CCNU were given intraperitoneally on the first day. The, blood was drawn from a tail vein at time intervals to determine the leukocyte count. The samples were used in the form of a solution in an isotonic sodium chloride solution.

Leukemia P-388 cells = assay: Antileukemia test, P-388 (Test Example 2); format: in vivo, CDF mice; details: for ILS (rate of apothanasia): 24 hours after implantation; for Number of survivals: 60 days
Description: (1) Test animals: The same animals as in Test 1.
(§1) 1×10^5 Leukemia P-388 cells per mouse were implanted into the abdomen of each mouse. After 24 hours, a given amount of CNUA dissolved in isotonic sodium chloride solution was administered to the mice. The rate of apothanasia (%) and number of survivals after 60 days were examined.

Leukemia L-1210 cells = assay: Antileukemia test, L-1210 (Test Example 1); format: in vivo, CDF mice; details: for Number of survivals: 60 days
Description: (1) Test animals: About 6-week old CDF mice each weighing 22±1 g; one group comprising 7 male mice.
as §1, with “L-1210” for “P-388”, “mice in through three different methods, i.e. intraperitoneal administration, intravenous administration and peroral administration.” for “mice.”, “apothanacia” for “apothanasia”
^a Symbols in the column of "Method of Administration" have the
ip: Intraperitoneal administration,
iv: Intravenous administration,
po: Peroral administration,
day 1: A given amount of CNUA was administered once 24 hours after the
day 1-3: Continuous administration once a day for three days subsequently
^b Rate of apothanasia % (ILS) was calculated according to the
^c Number of survivals means the number of mice which survived for 60
days or longer in the group consisting of the 7 mice tested.

lung autotumor = assay: Inhibition of mouse lung autotumor induced by ethylnitrosourea (Test Example 5); format: in vivo, DDY mice
Description: 100 mg/kg of ethylnitrosourea was given intraperitoneally to DDY mice 3 to 4 days prior to delivery. After delivery, mice born with lung autotumor were used as the test animals. One group consisted of 10 mice.
Four weeks after birth, a given amount of CNUA was administered in two ways, i.e., intravenous administration and peroral administration at predetermined times. Nine weeks after, the area of the tumor of each mouse was measued and the inhibition rate (%) was calculated.

O=NN(CCCl)C(=O)N[C@@H]1[C@H](O)[C@@H](CO)OC(O)[C@@H]1O (stereo partly drawn) [CNUA, 3-[3-(2-chloroethyl)-3-nitrosoureido]-3-deoxy-D-allose]
ILS (rate of apothanasia) (β-16 melanoma cells; 1.12 mg/kg/day, day 1-9, ip): 10%
ILS (rate of apothanasia) (β-16 melanoma cells; 2.23 mg/kg/day, day 1-9, ip): 25%
ILS (rate of apothanasia) (β-16 melanoma cells; 4.45 mg/kg/day, day 1-9, ip): 30%
ILS (rate of apothanasia) (β-16 melanoma cells; 5 mg/kg/day, day 1, ip): 0%
ILS (rate of apothanasia) (β-16 melanoma cells; 6.67 mg/kg/day, day 1-9, ip): 35%
ILS (rate of apothanasia) (β-16 melanoma cells; 10 mg/kg/day, day 1, ip): 16%
ILS (rate of apothanasia) (β-16 melanoma cells; 20 mg/kg/day, day 1, ip): 48%
ILS (rate of apothanasia) (β-16 melanoma cells; 20 mg/kg/day, day 1, iv): 65%
ILS (rate of apothanasia) (β-16 melanoma cells; 40 mg/kg/day, day 1, ip): 60%
ILS (rate of apothanasia) (β-16 melanoma cells; 40 mg/kg/day, day 1, iv): 155%
ILS (rate of apothanasia) (β-16 melanoma cells; 60 mg/kg/day, day 1, iv): 35%
Number of survivals (β-16 melanoma cells; 1.12 mg/kg/day, day 1-9, ip): 0/7
Number of survivals (β-16 melanoma cells; 2.23 mg/kg/day, day 1-9, ip): 0/7
Number of survivals (β-16 melanoma cells; 4.45 mg/kg/day, day 1-9, ip): 0/7
Number of survivals (β-16 melanoma cells; 5 mg/kg/day, day 1, ip): 0/7
Number of survivals (β-16 melanoma cells; 6.67 mg/kg/day, day 1-9, ip): 0/7
Number of survivals (β-16 melanoma cells; 10 mg/kg/day, day 1, ip): 0/7
Number of survivals (β-16 melanoma cells; 20 mg/kg/day, day 1, ip): 1/7
Number of survivals (β-16 melanoma cells; 20 mg/kg/day, day 1, iv): 1/7
Number of survivals (β-16 melanoma cells; 40 mg/kg/day, day 1, ip): 2/7
Number of survivals (β-16 melanoma cells; 40 mg/kg/day, day 1, iv): 1/7
Number of survivals (β-16 melanoma cells; 60 mg/kg/day, day 1, iv): 0/7
antitumor effects [1]: powerful antitumor effects
LD50 (Toxicity tests (LD50); ip): 65.5 mg/kg
LD50 (Toxicity tests (LD50); iv): 80 mg/kg
LD50 (Toxicity tests (LD50); po): 550 mg/kg
Peripheral leukocyte count after the administration ([2]; 30 mg/kg ip, 2 day): 84.0 % based on the control
Peripheral leukocyte count after the administration ([2]; 30 mg/kg ip, 4 day): 82.2 % based on the control
Peripheral leukocyte count after the administration ([2]; 30 mg/kg ip, 7 day): 85.6 % based on the control
Peripheral leukocyte count after the administration ([2]; 30 mg/kg ip, 10 day): 84.7 % based on the control
Peripheral leukocyte count after the administration ([2]; 30 mg/kg ip, 14 day): 159 % based on the control
Peripheral leukocyte count after the administration ([2]; 60 mg/kg ip, 2 day): 78.2 % based on the control
Peripheral leukocyte count after the administration ([2]; 60 mg/kg ip, 4 day): 60.0 % based on the control
Peripheral leukocyte count after the administration ([2]; 60 mg/kg ip, 7 day): 64.5 % based on the control
Peripheral leukocyte count after the administration ([2]; 60 mg/kg ip, 10 day): 80.0 % based on the control
Peripheral leukocyte count after the administration ([2]; 60 mg/kg ip, 14 day): 100 % based on the control
myelotoxicity ([2]; as compared with Me-CCNU): relatively low myelotoxicity
ILS (rate of apothanasia) (Leukemia P-388 cells; 3.75 mg/kg/day): 50%
ILS (rate of apothanasia) (Leukemia P-388 cells; 7.5 mg/kg/day): 90%
ILS (rate of apothanasia) (Leukemia P-388 cells; 15 mg/kg/day): 240%
ILS (rate of apothanasia) (Leukemia P-388 cells; 30 mg/kg/day): > 500%
ILS (rate of apothanasia) (Leukemia P-388 cells; 45 mg/kg/day): > 500%
ILS (rate of apothanasia) (Leukemia P-388 cells; 60 mg/kg/day): > 500%
Number of survivals (Leukemia P-388 cells; 3.75 mg/kg/day): 0/7
Number of survivals (Leukemia P-388 cells; 7.5 mg/kg/day): 0/7
Number of survivals (Leukemia P-388 cells; 15 mg/kg/day): 3/7
Number of survivals (Leukemia P-388 cells; 30 mg/kg/day): 5/7
Number of survivals (Leukemia P-388 cells; 45 mg/kg/day): 7/7
Number of survivals (Leukemia P-388 cells; 60 mg/kg/day): 6/7
ILS (rate of apothanasia) (Leukemia L-1210 cells; 5 mg/kg/day, iv, day 1): 29%
ILS (rate of apothanasia) (Leukemia L-1210 cells; 10 mg/kg/day, iv, day 1): 43%
ILS (rate of apothanasia) (Leukemia L-1210 cells; 11.3 mg/kg/day, ip, day 1): 86%
ILS (rate of apothanasia) (Leukemia L-1210 cells; 11.3 mg/kg/day, ip, day 1-3): 143%
ILS (rate of apothanasia) (Leukemia L-1210 cells; 20 mg/kg/day, iv, day 1): 86%
ILS (rate of apothanasia) (Leukemia L-1210 cells; 22.5 mg/kg/day, ip, day 1): 157%
ILS (rate of apothanasia) (Leukemia L-1210 cells; 22.5 mg/kg/day, ip, day 1-3): > 757%
ILS (rate of apothanasia) (Leukemia L-1210 cells; 40 mg/kg/day, iv, day 1): > 757%
ILS (rate of apothanasia) (Leukemia L-1210 cells; 45 mg/kg/day, ip, day 1): > 757%
ILS (rate of apothanasia) (Leukemia L-1210 cells; 45 mg/kg/day, ip, day 1-3): > 757%
ILS (rate of apothanasia) (Leukemia L-1210 cells; 50 mg/kg/day, iv, day 1): 400%
ILS (rate of apothanasia) (Leukemia L-1210 cells; 60 mg/kg/day, ip, day 1): > 757%
ILS (rate of apothanasia) (Leukemia L-1210 cells; 60 mg/kg/day, ip, day 1-3): > 757%
ILS (rate of apothanasia) (Leukemia L-1210 cells; 100 mg/kg/day, po, day 1): 86%
ILS (rate of apothanasia) (Leukemia L-1210 cells; 200 mg/kg/day, po, day 1): 100%
ILS (rate of apothanasia) (Leukemia L-1210 cells; 300 mg/kg/day, po, day 1): 100%
ILS (rate of apothanasia) (Leukemia L-1210 cells; 400 mg/kg/day, po, day 1): 57%
Number of survivals (Leukemia L-1210 cells; 5 mg/kg/day, iv, day 1): 0/7
Number of survivals (Leukemia L-1210 cells; 10 mg/kg/day, iv, day 1): 0/7
Number of survivals (Leukemia L-1210 cells; 11.3 mg/kg/day, ip, day 1): 1/7
Number of survivals (Leukemia L-1210 cells; 11.3 mg/kg/day, ip, day 1-3): 1/7
Number of survivals (Leukemia L-1210 cells; 20 mg/kg/day, iv, day 1): 1/7
Number of survivals (Leukemia L-1210 cells; 22.5 mg/kg/day, ip, day 1): 3/7
Number of survivals (Leukemia L-1210 cells; 22.5 mg/kg/day, ip, day 1-3): 5/7
Number of survivals (Leukemia L-1210 cells; 40 mg/kg/day, iv, day 1): 4/7
Number of survivals (Leukemia L-1210 cells; 45 mg/kg/day, ip, day 1): 7/7
Number of survivals (Leukemia L-1210 cells; 45 mg/kg/day, ip, day 1-3): 5/7
Number of survivals (Leukemia L-1210 cells; 50 mg/kg/day, iv, day 1): 2/7
Number of survivals (Leukemia L-1210 cells; 60 mg/kg/day, ip, day 1): 4/7
Number of survivals (Leukemia L-1210 cells; 60 mg/kg/day, ip, day 1-3): 4/7
Number of survivals (Leukemia L-1210 cells; 100 mg/kg/day, po, day 1): 0/7
Number of survivals (Leukemia L-1210 cells; 200 mg/kg/day, po, day 1): 3/7
Number of survivals (Leukemia L-1210 cells; 300 mg/kg/day, po, day 1): 2/7
Number of survivals (Leukemia L-1210 cells; 400 mg/kg/day, po, day 1): 2/7
Inhibition rate (lung autotumor; iv, 5 weeks after birth, 40 × 1 mg/kg): 37.2%
Area of tumor (± S.E.) (lung autotumor; iv, 5 weeks after birth, 40 × 1 mg/kg, p < 0.05, control 1.45 ± 0.30): 0.91 ± 0.81 mm^2
Inhibition rate (lung autotumor; iv, 5.6 weeks after birth, 40 × 2 mg/kg): 49.2%
Area of tumor (± S.E.) (lung autotumor; iv, 5.6 weeks after birth, 40 × 2 mg/kg, p < 0.01, control 1.45 ± 0.30): 0.75 ± 0.22 mm^2
Inhibition rate (lung autotumor; iv, 5.7 weeks after birth, 40 × 2 mg/kg): 46.5%
Area of tumor (± S.E.) (lung autotumor; iv, 5.7 weeks after birth, 40 × 2 mg/kg, p < 0.01, control 1.45 ± 0.30): 0.79 ± 0.31 mm^2
Inhibition rate (lung autotumor; po, 5,6,7,8 weeks after birth, 133 × 4 mg/kg): 44.7%
Area of tumor (± S.E.) (lung autotumor; po, 5,6,7,8 weeks after birth, 133 × 4 mg/kg, p < 0.01, control 1.41 ± 0.44): 0.78 ± 0.22 mm^2
Inhibition rate (lung autotumor; po, 5,6,7,8 weeks after birth, 200 × 4 mg/kg): 44.7%
Area of tumor (± S.E.) (lung autotumor; po, 5,6,7,8 weeks after birth, 200 × 4 mg/kg, p < 0.01, control 1.41 ± 0.44): 0.78 ± 0.16 mm^2
Inhibition rate (lung autotumor; po, 5,6,7,8 weeks after birth, 267 × 4 mg/kg): 61.0%
Area of tumor (± S.E.) (lung autotumor; po, 5,6,7,8 weeks after birth, 267 × 4 mg/kg, p < 0.01, control 1.41 ± 0.44): 0.55 ± 0.18 mm^2
Inhibition rate (lung autotumor; po, 5,6,7,8 weeks after birth, 333 × 4 mg/kg): 53.2%
Area of tumor (± S.E.) (lung autotumor; po, 5,6,7,8 weeks after birth, 333 × 4 mg/kg, p < 0.01, control 1.41 ± 0.44): 0.66 ± 0.14 mm^2
